Where a name gives a salt, the structure may show the parent alone.

`C[C@@]1(O)[C@H](O)[C@@H](COP2(=O)OCC[C@@H](c3ccccn3)O2)O[C@H]1n1cnc2c(N)ncnc21` (stereo partly drawn) (as salt: trifluoroacetic acid salt) [Compound 21.7, cis-5′-O-[4-(pyridin-2-yl)-2-oxo-1,3,2-dioxaphosphorinan-2-yl]-2′-C-beta-methyl-adenosine trifluoroacetic acid salt] came in with a melting point of 118 to 120 °C.

`C[C@@]1(O)[C@H](O)[C@@H](COP2(=O)OCC[C@@H](c3ccc(S(C)(=O)=O)cc3)O2)O[C@H]1n1cnc2c(N)ncnc21` (stereo partly drawn) (as salt: trifluoroacetic acid salt) [Compound 21.8, cis-5′-O-[4-(4-methylsulfonylphenyl)-2-oxo-1,3,2-dioxaphosphorinan-2-yl]-2′-C-beta-methyl-adenosine trifluoroacetic acid salt]: the melting point lay within 185 to 187 °C.

For the compound `C[C@@]1(O)[C@H](O)[C@@H](COP2(=O)OCC[C@H](c3cc(F)ccc3F)O2)O[C@H]1n1ccc2c(N)ncnc21` (stereo partly drawn) [Compound 16.2, 4-amino-7-(cis-5′-O-[4-(2,5-difluorophenyl)-2-oxo-1,3,2-dioxaphosphorinan-2-yl]-2-C-methyl-beta-D-ribofuranosyl)-7H-pyrrolo[2,3-d]pyrimidine], the melting point lay within 145 to 148 °C.

`C[C@@]1(O)[C@H](O)[C@@H](COP2(=O)OCC[C@H](c3ccc(F)c(Cl)c3)O2)O[C@H]1n1ccc2c(N)ncnc21` (stereo partly drawn) [Compound 16.3, 4-amino-7-(cis-5′-O-[4-(3-chloro-4-fluorophenyl)-2-oxo-1,3,2-dioxaphosphorinan-2-yl]-2′-C-methyl-beta-D-ribofuranosyl)-7H-pyrrolo[2,3-d]pyrimidine] showed a melting point of 128 to 130 °C.

`CC1(C)C[C@H](c2ccccc2)OP(=O)(OC[C@H]2O[C@@H](n3ccc4c(N)ncnc43)[C@](C)(O)[C@@H]2O)O1` (stereo partly drawn) [Compound 16.4, 4-amino-7-(cis-5′-O-[6,6-dimethyl-4-phenyl-2-oxo-1,3,2-dioxaphosphorinan-2-yl]-2′-C-methyl-beta-D-ribofuranosyl)-7H-pyrrolo[2,3-d]pyrimidine] showed a melting point of 140 to 142 °C.

`C[C@@]1(O)[C@H](O)[C@@H](CO[P@@]2(=O)OCC[C@@H](c3cccc(Cl)c3)O2)O[C@H]1n1ccc2c(N)ncnc21` [Compound 16.5, 4-amino-7-(cis-5′-[4-(S)-(3-chlorophenyl)-2-oxo-1,3,2-dioxaphosphorinan-2-yl]-2′-C-methyl-beta-D-ribofuranosyl)-7H-pyrrolo[2,3-d]pyrimidine] had a melting point of 135 to 138 °C.

On to `C[C@@]1(O)[C@H](O)[C@@H](CO[P@@]2(=O)OCC[C@@H](c3ccncc3)O2)O[C@H]1n1ccc2c(N)ncnc21` [Compound 16.7], for which the melting point lay in the range of 183 to 185 °C.

As for `C[C@@]1(O)[C@H](O)[C@@H](COP2(=O)OCC[C@@H](c3ccccc3Br)O2)O[C@H]1n1ccc2c(N)ncnc21` (stereo partly drawn) [Compound 16.10, 4-amino-7-(cis-5′-O-[4-(2-bromophenyl)-2-oxo-1,3,2-dioxaphosphorinan-2-yl]-2′-C-methyl-beta-D-ribofuranosyl)-7H-pyrrolo[2,3-d]pyrimidine], the melting point is 132 to 135 °C.

Take `C[C@@]1(O)[C@H](O)[C@@H](COP2(=O)OCC[C@@H](c3cncc(Br)c3)O2)O[C@H]1n1ccc2c(N)ncnc21` (stereo partly drawn) [Compound 16.11, 4-amino-7-(cis-5′-O-[4-(5-bromopyridin-3-yl)-2-oxo-1,3,2-dioxaphosphorinan-2-yl]-2′-C-methyl-beta-D-ribofuranosyl)-7H-pyrrolo[2,3-d]pyrimidine]: the melting point was 132 to 135 °C.

In turn, `C[C@@]1(O)[C@H](O)[C@@H](CO[P@@]2(=O)OCC[C@@H](c3ccccc3)O2)O[C@H]1n1ccc2c(N)ncnc21` [Compound 16.12, 4-amino-7-(cis-5′-O-[4-(S)-phenyl-2-oxo-1,3,2-dioxaphosphorinan-2-y]-2′-C-methyl-beta-D-ribofuranosyl)-7H-pyrrolo[2,3-d]pyrimidine] yielded a melting point of 115 to 118 °C.

Source of the values: patent US20050182252A1, “Novel 2'-C-methyl nucleoside derivatives” (priority 2004, published 2005).
